# How the values were obtained:
# A375M xenograft = experiment: Mutant B-Raf xenograft model; format: in vivo
# MEXF276 xenograft = experiment: Mutant B-Raf xenograft model; format: in vivo
# HT29 xenograft = experiment: Mutant B-Raf xenograft model; format: in vivo
# HCT116 xenograft = experiment: K-Ras driven xenograft model; format: in vivo
# Text: […]. […] […].
# [1] = tested on: A375M melanoma xenograft tumors; experiment: mRNA microarray profiling of A375M xenograft tumors; format: in vivo, mice; details: 100 mg/kg orally every other day; 783 probesets; Table IX
# SKMEL28 = details: SKMEL28, mutant B-Raf cell line
# A2058 = details: A2058, mutant B-Raf cell line
# G361 = details: G361, mutant B-Raf cell line
# COLO205 = details: COLO205, mutant B-Raf cell line
# SKMEL31 = details: SKMEL31, mutant B-Raf cell line
# MALME-3M = details: mutant B-Raf cell line
# SW620 = details: SW620, K-Ras cell line
# SKMEL2 = details: SKMEL2, N-Ras cell line
# [2] = tested on: MEK target phosphorylation and signaling molecules downstream from Raf (BIM, Cyclin D1, p27Kip, pAKT); details: preclinical models
compound,measurement,setting,value
"Cn1c(Nc2ccc(C(F)(F)F)cc2)nc2cc(Oc3ccnc(-c4ncc(C(F)(F)F)[nH]4)c3)ccc21 [CHIR-265, {1-Methyl-5-[2-(5-trifluoromethyl-1H-imidazol-2-yl)-pyridin-4-yloxy]-1H benzoimidazol-2-yl}-(4-trifluoromethyl-phenyl)-amine]",effect on tumor,A375M xenograft,tumor regression
same,effect on tumor,MEXF276 xenograft,tumor regression
same,effect on tumor,HT29 xenograft,tumor regression
same,effect on tumor,HCT116 xenograft,tumor growth inhibition
same,"number of genes significantly differential, alternate analysis method (six queries, p<0.005)",[1],609 genes
same,inhibition of the Raf pathway,SKMEL28,inhibition of the Raf pathway
same,inhibition of the Raf pathway,A2058,inhibition of the Raf pathway
same,inhibition of the Raf pathway,G361,inhibition of the Raf pathway
same,inhibition of the Raf pathway,COLO205,inhibition of the Raf pathway
same,inhibition of the Raf pathway,SKMEL31,inhibition of the Raf pathway
same,inhibition of the Raf pathway,MALME-3M,inhibition of the Raf pathway
same,inhibition of the Raf pathway,SW620,inhibition of the Raf pathway
same,inhibition of the Raf pathway,SKMEL2,inhibition of the Raf pathway
same,inhibition of MEK target phosphorylation and signaling molecules downstream from Raf in the MAPK pathway,[2],dose and time dependent inhibition

# From patent US20100004253A1, “BIOMARKERS OF TARGET MODULATION, EFFICACY, DIAGNOSIS AND/OR PROGNOSIS FOR RAF INHIBITORS” (Novartis AG, priority 2006, published 2010)
